Data from ChEMBL document CHEMBL4387705, “Synthesis of new arylsulfonylspiroimidazolidine-2',4'-diones and study of their effect on stimulation of insulin release from MIN6 cell line, inhibition of human aldose reductase, sorbitol accumulations in various tissues and oxidative stress” (Eur J Med Chem, 2019).

Legend:
MIN6 [1] = assay: Antidiabetic activity in mouse MIN6 cells after 35 passages assessed as increase in insulin secretion at 100 uM in presence of 25 mM glucose by ELISA relative to control; format: functional
[2] = biological target: Aldo-keto reductase family 1 member B1 (Rattus norvegicus) (UniProt P07943); assay: (§1) Inhibition of ALR2 in rat sciatic nerve assessed as reduction in sorbitol accumulation incubated for 3 hrs in presence of 28 mM glucose by gas chromatographic analysis
[3] = biological target: T1, Aldo-keto reductase family 1 member B1 (Rattus norvegicus, UniProt P07943); assay: as §1
[4] = Antioxidant activity assessed as DPPH radical scavenging activity at 50 uM incubated for 30 mins under dark condition by spectrophotometry; format: functional
[5] = Cytotoxicity against HEK293 cells assessed as reduction in cell viability at 200 uM incubated for 48 hrs by MTT assay relative to control; format: cell-based; settings: human, read-out: INH
[6] = biological target: Aldo-keto reductase family 1 member B1 (Rattus norvegicus) (UniProt P07943); assay: (§2) Inhibition of ALR2 in rat lens assessed as reduction in sorbitol accumulation incubated for 3 hrs in presence of 28 mM glucose by gas chromatographic analysis relative to control
[7] = biological target: T1, Aldo-keto reductase family 1 member B1; assay: as §2
[8] = Cytotoxicity against HEK293 cells assessed as reduction in cell viability at 25 uM incubated for 48 hrs by MTT assay relative to control; format: cell-based; settings: human, read-out: INH
[9] = biological target: Aldo-keto reductase family 1 member B1 (Homo sapiens, UniProt P15121); assay: Inhibition of human recombinant ALR2 expressed in Escherichia coli using DL-glyceraldehyde as substrate and NADPH preincubated for 5 mins followed by substrate addition and measured after 30 mins at 2 mins interval by spectrophotometry relative to control
[10] = Antioxidant activity assessed as DPPH radical scavenging activity at 10 uM incubated for 30 mins under dark condition by spectrophotometry; format: functional
MIN6 [11] = assay: Antidiabetic activity in mouse MIN6 cells after 83 passages assessed as increase in insulin secretion at 100 uM in presence of 25 mM glucose by ELISA relative to control; format: functional
[12] = Cytotoxicity against mouse MIN6 cells assessed as cell viability at 400 uM incubated for 24 hrs by MTT assay; format: cell-based; settings: read-out: Activity
MIN6 [13] = assay: Effect on cell morphology in mouse MIN6 cells assessed as cell viability up to 400 uM incubated for 24 hrs; format: cell-based; settings: min6, 24 h
[14] = Cytotoxicity against HEK293 cells assessed as reduction in cell viability at 50 uM incubated for 48 hrs by MTT assay relative to control; format: cell-based; settings: human, read-out: INH
[15] = Antioxidant activity assessed as DPPH radical scavenging activity at 100 uM incubated for 30 mins under dark condition by spectrophotometry; format: functional
MIN6 [16] = assay: Cytotoxicity against mouse MIN6 cells assessed as reduction in cell viability up to 200 uM incubated for 24 hrs by MTT assay; format: cell-based; settings: min6, 24 h
[17] = biological target: Aldo-keto reductase family 1 member B1 (Rattus norvegicus) (UniProt P07943); assay: (§3) Inhibition of ALR2 in rat erythrocytes assessed as reduction in sorbitol accumulation incubated for 3 hrs in presence of 28 mM glucose by gas chromatographic analysis relative to control; format: cell-based
[18] = biological target: T1, Aldo-keto reductase family 1 member B1; assay: as §3; format: cell-based
[19] = Cytotoxicity against HEK293 cells assessed as reduction in cell viability at 100 uM incubated for 48 hrs by MTT assay relative to control; format: cell-based; settings: human, read-out: INH
[20] = Selectivity ratio of IC50 for rat kidney ALR1 IC50 to IC50 for human recombinant ALR2
[21] = biological target: Aldo-keto reductase family 1 member A1 (Rattus norvegicus, UniProt P51635); assay: Inhibition of rat kidney ALR1 using DL-glyceraldehyde as substrate and NADPH preincubated for 5 mins followed by substrate addition and measured for 30 mins at 2 mins interval by spectrophotometry relative to control
Sequence of Aldo-keto reductase family 1 member A1 (P51635 whole entry, looked up): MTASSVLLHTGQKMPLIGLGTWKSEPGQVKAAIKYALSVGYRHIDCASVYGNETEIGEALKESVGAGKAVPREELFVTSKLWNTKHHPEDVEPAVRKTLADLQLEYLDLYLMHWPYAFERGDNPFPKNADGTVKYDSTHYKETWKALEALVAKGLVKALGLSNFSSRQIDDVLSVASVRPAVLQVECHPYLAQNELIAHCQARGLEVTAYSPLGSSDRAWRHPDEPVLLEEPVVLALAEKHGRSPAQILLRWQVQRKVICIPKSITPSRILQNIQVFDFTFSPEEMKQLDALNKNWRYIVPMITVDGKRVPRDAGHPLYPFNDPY

| SMILES | inhibition [2] | IC50 [3] [µM] | inhibition [6] | IC50 [7] [µM] | IC50 [9] [µM] | inhibition [17] | IC50 [18] [µM] | Activity (MIN6 [1]) [%] | inhibition [4] [%] | cytotoxicity at 48 h, 200 µM [5] [%] | cytotoxicity at 48 h, 25 µM [8] [%] | inhibition [10] [%] | Activity (MIN6 [11]) [%] | viability at 24 h, 400 µM [12] [%] | Activity (MIN6 [13]) | cytotoxicity at 48 h, 50 µM [14] [%] | inhibition [15] [%] | Activity (MIN6 [16]) | cytotoxicity at 48 h, 100 µM [19] [%] | also measured |
| --- | --- | --- | --- | --- | --- | --- | --- | --- | --- | --- | --- | --- | --- | --- | --- | --- | --- | --- | --- | --- |
| Cc1ccc(S(=O)(=O)N2C(=O)NC3(CCCc4ccccc43)C2=O)cc1 (stereo not drawn) | Dose-dependent effect | 1.72 | Dose-dependent effect | 1.56 | 1.8 | Dose-dependent effect | 1.7 | 275 | 37.3 | 21.5 | 18.2 | 23.2 | 177 | 81 | Non-Toxic | 19.1 | 42.4 | Non-Toxic | 20.2 | – |
| CC(=O)c1ccc(S(=O)(=O)N2C(=O)NC3(CCCc4ccccc43)C2=O)cc1 (stereo not drawn) | Dose-dependent effect | 22.7 | Dose-dependent effect | 34.8 | 37.7 | Dose-dependent effect | 25.7 | 118 | 39.8 | 55.5 | 17.5 | 25.1 | – | 81 | Non-Toxic | 24.4 | 75.3 | Non-Toxic | 42 | – |
| O=C1NC2(CCCc3ccccc32)C(=O)N1S(=O)(=O)c1ccc(Cl)cc1 (stereo not drawn) | Dose-dependent effect | – | Dose-dependent effect | – | 40.2 | Dose-dependent effect | – | 145 | – | 23.3 | 12.7 | – | – | 81 | Non-Toxic | 16.1 | 8.44 | Non-Toxic | 18.2 | – |
| COc1ccc(S(=O)(=O)N2C(=O)NC3(CCCc4ccccc43)C2=O)cc1 (stereo not drawn) | Dose-dependent effect | 19.4 | Dose-dependent effect | 15.8 | 11.7 | Dose-dependent effect | 20.4 | 142 | 45.3 | 26.6 | 15.4 | 31.6 | – | 81 | Non-Toxic | 13.6 | 66.9 | Non-Toxic | 18.5 | Ratio IC50 [20]: 2.2; IC50 [21]: 25.6 µM |
| O=C1NC2(CCCc3ccccc32)C(=O)N1S(=O)(=O)c1ccc([N+](=O)[O-])cc1 (stereo not drawn) | Dose-dependent effect | – | Dose-dependent effect | – | – | Dose-dependent effect | – | 121 | 67.3 | 28.4 | 9.37 | 44.8 | – | 81 | Non-Toxic | 14.2 | 77.6 | Non-Toxic | 19.2 | – |
| CC(/C=C1\SC(=S)N(CC(=O)O)C1=O)=C\c1ccccc1 | – | – | – | – | – | – | – | – | – | 18.3 | 10.3 | – | – | – | – | 12 | – | – | 13.7 | – |
| O=C1NC2(CCCc3ccccc32)C(=O)N1S(=O)(=O)c1ccc(Br)cc1 (stereo not drawn) | Dose-dependent effect | 10.4 | Dose-dependent effect | 10.9 | 10.8 | Dose-dependent effect | 11.1 | 165 | – | 39.3 | 16.9 | – | – | 81 | Non-Toxic | 18.9 | 1.55 | Non-Toxic | 21.1 | Ratio IC50 [20]: 4.07; IC50 [21]: 44.1 µM |
| Cc1c(C)c2c(c(C)c1O)CCC(C)(C(=O)O)O2 (stereo not drawn) | – | – | – | – | – | – | – | – | 84.5 | – | – | 82.5 | – | – | – | – | 94.2 | – | – | – |

Further lines, with some results ahead:

| inhibition [2] | IC50 [3] [µM] | inhibition [6] | IC50 [7] [µM] | IC50 [9] [µM] | inhibition [17] | IC50 [18] [µM] | SMILES | Activity (MIN6 [1]) [%] | inhibition [4] [%] | cytotoxicity at 48 h, 200 µM [5] [%] | cytotoxicity at 48 h, 25 µM [8] [%] | inhibition [10] [%] | Activity (MIN6 [11]) [%] | viability at 24 h, 400 µM [12] [%] | Activity (MIN6 [13]) | cytotoxicity at 48 h, 50 µM [14] [%] | inhibition [15] [%] | Activity (MIN6 [16]) | cytotoxicity at 48 h, 100 µM [19] [%] | also measured |
| --- | --- | --- | --- | --- | --- | --- | --- | --- | --- | --- | --- | --- | --- | --- | --- | --- | --- | --- | --- | --- |
| Dose-dependent effect | 7.37 | Dose-dependent effect | 6.25 | 5.84 | Dose-dependent effect | 5.49 | O=C1NC(=O)C2(CCCc3ccccc32)N1S(=O)(=O)c1ccc(F)cc1 (stereo not drawn) | 250 | – | 36.3 | 11.9 | – | 164 | 81 | Non-Toxic | 18.9 | 2.52 | Non-Toxic | 25.1 | – |
| Dose-dependent effect | 4.34 | Dose-dependent effect | 3.86 | 6.15 | Dose-dependent effect | 3.8 | O=C1NC(=O)C2(CCCc3ccccc32)N1S(=O)(=O)c1ccc(Cl)cc1 (stereo not drawn) | 140 | – | 33.3 | 10.8 | – | 159 | 81 | Non-Toxic | 12.6 | 8.48 | Non-Toxic | 19.9 | – |
| Dose-dependent effect | 1.33 | Dose-dependent effect | 1.15 | 5.02 | Dose-dependent effect | 1.34 | Cc1ccc(S(=O)(=O)N2C(=O)NC(=O)C23CCCc2ccccc23)cc1 (stereo not drawn) | 308 | 37.5 | 32 | 13.9 | 33.3 | 222 | 81 | Non-Toxic | 22.9 | 42.4 | Non-Toxic | 22.6 | – |
| Dose-dependent effect | – | Dose-dependent effect | – | 34.5 | Dose-dependent effect | – | O=C1NC(=O)C2(CCCc3ccccc32)N1S(=O)(=O)c1ccc([N+](=O)[O-])cc1 (stereo not drawn) | 145 | 77.3 | 53.4 | 23.6 | 70.5 | – | 81 | Non-Toxic | 36 | 87.6 | Non-Toxic | 39.2 | – |
| Dose-dependent effect | – | Dose-dependent effect | – | – | Dose-dependent effect | – | O=C1NC2(CCCc3ccccc32)C(=O)N1S(=O)(=O)c1ccc(F)cc1 (stereo not drawn) | 111 | – | 36.5 | 11.4 | – | – | 81 | Non-Toxic | 26.1 | 2.51 | Non-Toxic | 31.9 | – |
| Dose-dependent effect | 2.72 | Dose-dependent effect | 2.5 | 5.72 | Dose-dependent effect | 2.79 | O=C1NC(=O)C2(CCCc3ccccc32)N1S(=O)(=O)c1ccc(Br)cc1 (stereo not drawn) | 210 | – | 25.8 | 12.8 | – | 160 | 81 | Non-Toxic | 18.8 | 1.59 | Non-Toxic | 19.4 | Ratio IC50 [20]: 7.23; IC50 [21]: 41.4 µM |
